Data on 5 molecules can be found in BindingDB's records for doi:10.1016/0960-894X(95)00250-W (1995).

This experiment deals with Receptor-type tyrosine-protein phosphatase C (Homo sapiens) (UniProt P08575). As to the kind of experiment: In vitro inhibitory activity against recombinant CD45 protein tyrosine phosphatase.
Sequence of Receptor-type tyrosine-protein phosphatase C (Homo sapiens) (P08575 whole entry, looked up): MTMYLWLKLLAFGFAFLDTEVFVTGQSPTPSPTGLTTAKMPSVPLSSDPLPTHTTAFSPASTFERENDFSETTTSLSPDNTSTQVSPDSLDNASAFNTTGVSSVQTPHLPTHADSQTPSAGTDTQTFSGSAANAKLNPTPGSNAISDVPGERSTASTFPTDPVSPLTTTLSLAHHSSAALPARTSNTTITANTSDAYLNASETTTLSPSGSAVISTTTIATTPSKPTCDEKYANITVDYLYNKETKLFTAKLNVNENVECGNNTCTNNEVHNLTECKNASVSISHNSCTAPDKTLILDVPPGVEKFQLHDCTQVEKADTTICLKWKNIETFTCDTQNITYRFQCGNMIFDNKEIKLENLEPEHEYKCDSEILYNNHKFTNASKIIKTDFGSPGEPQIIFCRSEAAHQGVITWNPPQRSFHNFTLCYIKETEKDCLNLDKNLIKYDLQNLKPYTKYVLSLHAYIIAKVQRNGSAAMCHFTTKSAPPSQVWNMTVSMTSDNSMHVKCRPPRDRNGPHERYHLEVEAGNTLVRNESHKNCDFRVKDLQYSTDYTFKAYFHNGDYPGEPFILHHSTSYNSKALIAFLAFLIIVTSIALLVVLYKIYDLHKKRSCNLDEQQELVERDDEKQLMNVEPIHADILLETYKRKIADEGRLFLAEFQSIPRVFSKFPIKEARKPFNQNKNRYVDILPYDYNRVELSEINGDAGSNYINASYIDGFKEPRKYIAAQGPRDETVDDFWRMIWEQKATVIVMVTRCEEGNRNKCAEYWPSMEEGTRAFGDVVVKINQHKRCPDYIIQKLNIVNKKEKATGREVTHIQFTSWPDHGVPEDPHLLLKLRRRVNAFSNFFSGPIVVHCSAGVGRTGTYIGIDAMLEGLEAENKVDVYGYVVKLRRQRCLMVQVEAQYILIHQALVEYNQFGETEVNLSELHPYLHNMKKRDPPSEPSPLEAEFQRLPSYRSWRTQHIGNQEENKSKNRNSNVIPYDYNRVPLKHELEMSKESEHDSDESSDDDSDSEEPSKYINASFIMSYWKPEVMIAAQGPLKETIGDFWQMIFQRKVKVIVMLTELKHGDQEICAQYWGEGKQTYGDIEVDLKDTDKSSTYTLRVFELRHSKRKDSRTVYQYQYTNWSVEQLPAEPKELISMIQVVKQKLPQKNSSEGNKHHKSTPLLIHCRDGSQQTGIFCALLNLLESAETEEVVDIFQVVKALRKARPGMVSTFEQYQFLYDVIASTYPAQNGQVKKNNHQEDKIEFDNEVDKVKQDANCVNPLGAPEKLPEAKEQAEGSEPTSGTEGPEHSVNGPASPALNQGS
By IC50 is commonly meant the concentration that inhibits the measured activity by half. In the case of `COc1cc2c(cc1OC)-c1c(OC)c(OC)cc3c1[C@H](C2)N(C)CC3`, the 50% inhibitory concentration (IC50) stood at 88 µM.

Take `CN1CCc2cc3c(c4c2C1Cc1ccccc1-4)OCO3` (stereo not given) [7-Methyl-6,7,7a,8-tetrahydro-5H-benzo[g][1,3]dioxolo[4',5':4,5]benzo[1,2,3-de]quinoline]: the half-inhibitory concentration (IC50) came out at 107 µM.

In the case of `c1ccc2c(c1)C[C@H]1NCCc3cc4c(c-2c31)OCO4` [(-)-anonaine], the IC50 is 17 µM.

In the case of `COc1cc2c3c(c1OC)-c1ccccc1C[C@@H]3NCC2` [(S)-1,2-Dimethoxy-5,6,6a,7-tetrahydro-4H-dibenzo[de,g]quinoline], the IC50 was 5.3 µM.

With `O=C1c2ccccc2-c2c3c(cc4ccnc1c24)OCO3` [Liriodenine], the IC50 is 182 µM.
